In patent publication US8703720B2, “Galactoside inhibitors of galectins” (Galecto Biotech AB, priority 2009, dated 2014):

Experiments:
galectin-1 = galectin-1 (Homo sapiens (Human), UniProt P09382); experiment: Fluorescence polarization-based galectin-1 inhibition assay; assay type: binding; details: calculated from test by fluorescence polarization at the tested conc.
Text: (§1) The known galectin inhibitors galactose and N-acetyllactosamine methyl glycosides were included as reference compounds.
(§2) Identification of the substances was made by HRMS (Micromass Q-tof micro) and NMR (Bruker Ultrashield 400 plus, 400 MHz). Chemical shifts are reported downfield from Me4Si using residual CHD2Cl (7.26 ppm) or CHD2OD (3.35 ppm) as reference. Chemical shifts and coupling constants were obtained from ^1H-NMR and proton resonances were assigned from COSY experiments. Purification was made by RF-HPLC (Beckman, system gold) or flash chromatography, using silica gel (Davisil 35-70 μm, 60 Å). Reactions were followed by TLC (Aluminum sheet, silica gel 60 F254) observed by UV light, H2SO4(aq) or a iso-vanillin/H2SO4/EtOH solution. THF and Et2O were dried over sodium/benzophenone and distilled. CH2Cl2 was dried by molecular sieves (4 Å, 1.6 mm). Other solvents and reagents were commercially available and used without further purifications. Fluorescence polarization experiments were performed on a PolarStar instrument (BMG, Offenburg; Germany). Evaluation of 7, 15-19, and 22 as inhibitors of galectins was performed by use of fluorescence polarization as described in the literature (Sörme et al., 2003a, 2004).

galectin-3 = galectin-3 (Homo sapiens (Human), UniProt P17931); experiment: Fluorescence polarization-based galectin-3 inhibition assay; assay type: binding; details: calculated from test by fluorescence polarization at the tested conc.
Text: as §1, §2

galectins = details: all galectins, cited from earlier work

Chain of galectin-1 (P09382 whole entry, species assumed): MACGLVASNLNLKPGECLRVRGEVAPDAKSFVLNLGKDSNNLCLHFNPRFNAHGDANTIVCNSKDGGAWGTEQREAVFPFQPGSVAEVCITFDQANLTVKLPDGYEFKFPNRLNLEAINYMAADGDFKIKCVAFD
Chain of galectin-3 (P17931 whole entry): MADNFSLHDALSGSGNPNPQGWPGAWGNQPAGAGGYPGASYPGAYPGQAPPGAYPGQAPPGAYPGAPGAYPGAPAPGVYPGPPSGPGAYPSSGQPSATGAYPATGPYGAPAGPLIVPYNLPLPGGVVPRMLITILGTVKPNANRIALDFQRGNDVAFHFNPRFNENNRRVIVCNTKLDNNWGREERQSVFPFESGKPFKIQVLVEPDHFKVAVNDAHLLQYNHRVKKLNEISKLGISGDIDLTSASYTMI

Row | SMILES | Kd (galectin-1) [µM] | Kd (galectin-3) [µM] | Kd (galectins) [µM] | affinity relative to lactose (galectins; compared with lactose)
1 | CCCNC(=O)c1cn(C2CCC[C@@H](S[C@@H]3OC(CO)[C@H](O)[C@H](n4cc(C(=O)NCCC)nn4)C3O)C2O)nn1 (stereo partly drawn) [Compound 19, ((1R,2R,3S)-2-hydroxy-3-(4-(propylcarbamoyl)-1H-1,2,3-triazol-1-yl)-cyclohexyl)-3-deoxy-3-(4-(propylcarbamoyl)-1H-1,2,3-triazol-1-yl)-thio-β-D-galactopyranoside] | 1.3 | 0.19 | – | –
2 | OC[C@H]1O[C@@H](S[C@@H]2CCC[C@H](n3cc(-c4ccsc4)nn3)[C@H]2O)[C@H](O)[C@@H](n2cc(-c3ccsc3)nn2)[C@H]1O [Compound 18, ((1R,2R,3S)-2-hydroxy-3-(4-(3-thiopheneyl)-1H-1,2,3-triazol-1-yl)-cyclohexyl) 3-deoxy-3-(4-(3-thienyl)-1H-1,2,3-triazol-1-yl)-1-thio-β-D-galactopyranoside] | 0.35 | 0.55 | – | –
3 | OC[C@H]1O[C@@H](O[C@H]2[C@H](O)[C@@H](O)C(O)O[C@@H]2CO)[C@H](O)[C@@H](O)[C@H]1O (some centres unmarked) [lactose] | – | – | 500 to 1000 | –
4 | O=C(NC1CCC[C@@H](S[C@@H]2OC(CO)[C@H](O)[C@H](NC(=O)c3ccc(Cl)cc3)C2O)C1O)c1ccc(Cl)cc1 (stereo partly drawn) [Compound 23, ((1R,2R,3S)-2-hydroxy-3-(4-chlorobenzamido)-cyclohexyl)-3-deoxy-3-(4-chlorobenzamido)-thio-β-D-galactopyranoside] | 6.3 | 1.4 | – | –
5 | CCCNC(=O)c1cn([C@H]2[C@@H](O)[C@@H](CO)O[C@@H](O[C@@H]3CCC[C@H](n4cc(C(=O)NCCC)nn4)[C@H]3O)[C@@H]2O)nn1 [Compound 7, ((1R,2R,3S)-2-hydroxy-3-(4-(N-(1-propyl)-carbamoyl)-1H-1,2,3-triazol-1-yl)cyclohexyl) 3-deoxy-(3-(4-(N-(1-propyl)-carbamoyl)-1H-1,2,3-triazol-1-yl))-β-D-galactopyranoside] | – | 0.43 | – | –
6 | OC[C@H]1O[C@@H](S[C@@H]2CCC[C@H](n3cc(-c4ccc(F)cc4)nn3)[C@H]2O)[C@H](O)[C@@H](n2cc(-c3ccc(F)cc3)nn2)[C@H]1O [Compound 17, ((1R,2R,3S)-2-hydroxy-3-(4-(4-fluorophenyl)-1H-1,2,3-triazol-1-yl)-cyclohexyl) 3-deoxy-3-(4-(4-fluorophenyl)-1H-1,2,3-triazol-1-yl)-1-thio-β-D-galactopyranoside] | 1.2 | 0.21 | – | –
7 | OC[C@H]1O[C@@H](S[C@@H]2CCC[C@H](n3cc(-c4ccccc4F)nn3)[C@H]2O)[C@H](O)[C@@H](n2cc(-c3ccccc3F)nn2)[C@H]1O [Compound 15, ((1R,2R,3S)-2-hydroxy-3-(4-(2-fluorophenyl)-1H-1,2,3-triazol-1-yl)-cyclohexyl) 3-deoxy-3-(4-(2-fluorophenyl)-1H-1,2,3-triazol-1-yl)-1-thio-β-D-galactopyranoside] | 1.9 | 0.23 | – | –
8 | OC[C@H]1O[C@@H](S[C@@H]2CCC[C@H](n3cc(-c4cccc(F)c4)nn3)[C@H]2O)[C@H](O)[C@@H](n2cc(-c3cccc(F)c3)nn2)[C@H]1O [Compound 16, ((1R,2R,3S)-2-hydroxy-3-(4-(3-fluorophenyl)-1H-1,2,3-triazol-1-yl)-cyclohexyl) 3-deoxy-3-(4-(3-fluorophenyl)-1H-1,2,3-triazol-1-yl)-1-thio-β-D-galactopyranoside] | 1.5 | – | – | –
9 | O=C[C@H](O)[C@@H](O)[C@@H](O)[C@H](O)CO [D-galactose] | – | – | – | 50-100 times lower
